Measurements published in PubChem BioAssay AID248 (DTP/NCI, 2004).
Several values for one entry are separate records, joined by “and”; a condition that tells them apart may be missing. Equal entries are not always repeated. Inconclusive results and toxic doses are left out. Rule as the data show it: active = T/C of 150% or more; inactive = T/C below 125%.

System: L1210 leukemia ip in BDF1 mice, survival T/C
Test: NCI In Vivo Anticancer Drug Screen. Data for tumor model L1210 Leukemia (intraperitoneal) in B6D2F1 (BDF1) mice
Details: endpoint: mean survival time, higher = longer survival
Summary of the method: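 Read-out is survival time, reported as the treated-group measurement over the vehicle-control measurement.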

[1] = dose: 100.0 mg/kg/injection, schedule: Q01DX009 (ip), vehicle: saline with Tween-80
[2] = dose: 100.0 mg/kg/injection, schedule: Q01DX009 (ip), vehicle: Klucel (hydroxypropylcellulose) (HPC)
[3] = dose: 200.0 mg/kg/injection, schedule: Q01DX009 (ip), vehicle: Klucel (hydroxypropylcellulose) (HPC)
[4] = dose: 6.25 mg/kg/injection, schedule: Q01DX009 (ip), vehicle: saline
[5] = dose: 100.0 mg/kg/injection, schedule: Q01DX001 (ip), vehicle: Klucel (hydroxypropylcellulose) (HPC)
[6] = dose: 200.0 mg/kg/injection, schedule: Q01DX001 (ip), vehicle: Klucel (hydroxypropylcellulose) (HPC)
[7] = dose: 100.0 mg/kg/injection, schedule: Q04DX002 (ip), vehicle: Klucel (hydroxypropylcellulose) (HPC)
[8] = dose: 200.0 mg/kg/injection, schedule: Q04DX002 (ip), vehicle: Klucel (hydroxypropylcellulose) (HPC)
[9] = dose: 400.0 mg/kg/injection, schedule: Q04DX002 (ip), vehicle: Klucel (hydroxypropylcellulose) (HPC)
[10] = dose: 100.0 mg/kg/injection, schedule: Q01DX001 (ip), vehicle: saline
[11] = dose: 200.0 mg/kg/injection, schedule: Q01DX001 (ip), vehicle: saline
[12] = dose: 400.0 mg/kg/injection, schedule: Q01DX001 (ip), vehicle: saline
[13] = dose: 100.0 mg/kg/injection, schedule: Q04DX003 (ip), vehicle: saline with Tween-80
[14] = dose: 200.0 mg/kg/injection, schedule: Q04DX003 (ip), vehicle: saline with Tween-80
[15] = dose: 400.0 mg/kg/injection, schedule: Q04DX003 (ip), vehicle: saline with Tween-80
[16] = dose: 100.0 mg/kg/injection, schedule: Q01DX001 (ip), vehicle: carboxymethylcellulose (CMC)
[17] = dose: 200.0 mg/kg/injection, schedule: Q01DX001 (ip), vehicle: carboxymethylcellulose (CMC)
[18] = dose: 400.0 mg/kg/injection, schedule: Q01DX001 (ip), vehicle: carboxymethylcellulose (CMC)
[19] = dose: 200.0 mg/kg/injection, schedule: Q01DX009 (ip), vehicle: saline with Tween-80

Measured: T/C

O=C(COc1ccc(Cl)cc1Cl)Nc1ccc(F)cc1
inactive: dose: 25.0 mg/kg/injection, schedule: Q01DX009 (ip), vehicle: saline with Tween-80 93 % of control | dose: 50.0 mg/kg/injection, schedule: Q01DX009 (ip), vehicle: saline with Tween-80 91 % of control | [1] 104 % of control and 88 % of control

O=C1CCC2c3ccccc3C(=O)C2C1 (configuration not stated)
inactive: dose: 50.0 mg/kg/injection, schedule: Q01DX009 (ip), vehicle: Klucel (hydroxypropylcellulose) (HPC) 100 % of control | [2] 100 % of control | [3] 98 % of control

Cn1cnc([N+](=O)[O-])c1[Se]c1ncnc2c1ccn2C1OC(CO)C(O)C1O (configuration not stated)
inactive: [4] 102 % of control | dose: 12.5 mg/kg/injection, schedule: Q01DX009 (ip), vehicle: saline 105 % of control | dose: 25.0 mg/kg/injection, schedule: Q01DX009 (ip), vehicle: saline 97 % of control

O=C(Nc1ccc(F)cc1)OCCOc1ccc(Cl)cc1Cl
inactive: [2] 105 % of control | [3] 110 % of control | dose: 400.0 mg/kg/injection, schedule: Q01DX009 (ip), vehicle: Klucel (hydroxypropylcellulose) (HPC) 109 % of control

CCCN(CCC)c1ccc(/C=C\c2ccncc2)cc1
inactive: [5] 98 % of control | [6] 103 % of control | dose: 400.0 mg/kg/injection, schedule: Q01DX001 (ip), vehicle: Klucel (hydroxypropylcellulose) (HPC) 98 % of control

O=S(=O)(c1ccccc1)N1CN2CN(C1)CN(S(=O)(=O)c1ccccc1)C2
inactive: [7] 103 % of control | [8] 106 % of control | [9] 89 % of control

CCC(CO)ON=C(C)C (configuration not stated)
inactive: [10] 104 % of control | [11] 104 % of control | [12] 102 % of control

O=C(O)CC(Sc1ccccc1)C(=O)O (configuration not stated)
inactive: dose: 100.0 mg/kg/injection, schedule: Q04DX002 (ip), vehicle: saline + alcohol 99 % of control | dose: 200.0 mg/kg/injection, schedule: Q04DX002 (ip), vehicle: saline + alcohol 102 % of control | dose: 400.0 mg/kg/injection, schedule: Q04DX002 (ip), vehicle: saline + alcohol 99 % of control

O=C1OC(=O)C2CC=CCC12 (configuration not stated)
inactive: [13] 106 % of control | [14] 106 % of control | [15] 98 % of control

Cc1ccc(S(=O)(=O)OC2C(C)C3CS(=O)(=O)C32)cc1 (configuration not stated)
inactive: dose: 100.0 mg/kg/injection, schedule: Q04DX002 (ip), vehicle: DMSO 119 % of control | dose: 200.0 mg/kg/injection, schedule: Q04DX002 (ip), vehicle: DMSO 105 % of control | dose: 400.0 mg/kg/injection, schedule: Q04DX002 (ip), vehicle: DMSO 102 % of control

CC(=O)/C=C/C1C(C)=CCCC1(C)C (configuration not stated)
inactive: [13] 97 % of control | [14] 92 % of control | [15] 100 % of control

CC(CCC(CCCCC(CCC(C)CC(C)(C)C)CCC(C)CC(C)(C)C)CCC(C)CC(C)(C)C)CC(C)(C)C (configuration not stated)
inactive: dose: 75.0 mg/kg/injection, schedule: Q01DX001 (ip), vehicle: saline with Tween-80 103 % of control | dose: 150.0 mg/kg/injection, schedule: Q01DX001 (ip), vehicle: saline with Tween-80 98 % of control | dose: 300.0 mg/kg/injection, schedule: Q01DX001 (ip), vehicle: saline with Tween-80 98 % of control

Cn1ccc[n+]1C
inactive: [10] 93 % of control | [11] 101 % of control | [12] 92 % of control

Cn1c(=O)c2c(nc(Cc3ccc(NC(=O)c4ccc(C(=O)Nc5ccc(Cc6nc7c(c(=O)n(C)c(=O)n7C)n6C)cc5)cc4)cc3)n2C)n(C)c1=O
inactive: dose: 50.0 mg/kg/injection, schedule: Q01DX001 (ip), vehicle: other 97 % of control | dose: 100.0 mg/kg/injection, schedule: Q01DX001 (ip), vehicle: other 94 % of control | dose: 200.0 mg/kg/injection, schedule: Q01DX001 (ip), vehicle: other 94 % of control | dose: 400.0 mg/kg/injection, schedule: Q01DX001 (ip), vehicle: other 92 % of control

O=C1C=CC(=O)c2cc(Cl)c(Cl)cc21
inactive: dose: 3.12 mg/kg/injection, schedule: Q01DX009 (ip), vehicle: saline 89 % of control | [4] 90 % of control | dose: 6.25 mg/kg/injection, schedule: Q04DX003 (ip), vehicle: saline 96 % of control | dose: 12.5 mg/kg/injection, schedule: Q01DX001 (ip), vehicle: saline 98 % of control | dose: 12.5 mg/kg/injection, schedule: Q04DX003 (ip), vehicle: saline 98 % of control | dose: 25.0 mg/kg/injection, schedule: Q01DX001 (ip), vehicle: saline 90 % of control

C=C(Br)C(C)N (configuration not stated)
inactive: dose: 100.0 mg/kg/injection, schedule: Q01DX009 (ip), vehicle: saline 104 % of control

O=C(Oc1ccc([N+](=O)[O-])cc1)c1cccc(S(=O)(=O)F)c1
inactive: [16] 93 % of control and 102 % of control | dose: 100.0 mg/kg/injection, schedule: Q01DX009 (ip), vehicle: carboxymethylcellulose (CMC) 103 % of control and 110 % of control | dose: 100.0 mg/kg/injection, schedule: Q04DX003 (ip), vehicle: carboxymethylcellulose (CMC) 104 % of control | [17] 98 % of control and 101 % of control | dose: 200.0 mg/kg/injection, schedule: Q01DX009 (ip), vehicle: carboxymethylcellulose (CMC) 92 % of control and 94 % of control | dose: 200.0 mg/kg/injection, schedule: Q04DX003 (ip), vehicle: carboxymethylcellulose (CMC) 102 % of control and 90 % of control | [18] 98 % of control and 101 % of control | dose: 400.0 mg/kg/injection, schedule: Q01DX009 (ip), vehicle: carboxymethylcellulose (CMC) 92 % of control | dose: 400.0 mg/kg/injection, schedule: Q04DX003 (ip), vehicle: carboxymethylcellulose (CMC) 96 % of control and 90 % of control

O=C(O)/C=C\C(=O)Nc1ccccc1[N+](=O)[O-]
inactive: [7] 90 % of control | [8] 114 % of control | [9] 104 % of control

O=c1c(N=Nc2ccc(Cl)cc2)c(O)n(-c2ccc(Cl)cc2)c(=S)n1-c1ccccc1
inactive: dose: 50.0 mg/kg/injection, schedule: Q01DX001 (ip), vehicle: Klucel (hydroxypropylcellulose) (HPC) 108 % of control | [5] 94 % of control | [6] 100 % of control

CCCCCCCCCCCCCCC(=O)[O][Hg][c]1ccccc1
inactive: dose: 75.0 mg/kg/injection, schedule: Q01DX001 (ip), vehicle: steriod suspending solution 100 % of control

CC1(C)CC(O)CC(O)C1 (configuration not stated)
inactive: dose: 50.0 mg/kg/injection, schedule: Q01DX001 (ip), vehicle: carboxymethylcellulose (CMC) 104 % of control | dose: 50.0 mg/kg/injection, schedule: Q01DX001 (ip), vehicle: saline 98 % of control | [16] 101 % of control | [10] 120 % of control | [17] 106 % of control | [11] 104 % of control | [18] 98 % of control | [12] 95 % of control

N#CC(CC(=O)c1ccc(Cl)cc1)c1ccccc1 (configuration not stated)
inactive: [1] 91 % of control | [19] 96 % of control | dose: 400.0 mg/kg/injection, schedule: Q01DX009 (ip), vehicle: saline with Tween-80 91 % of control

COC1OC(COS(C)(=O)=O)C(OS(C)(=O)=O)C(OC(=O)c2ccccc2)C1OS(C)(=O)=O (configuration not stated)
inactive: [7] 111 % of control | [8] 97 % of control | [9] 97 % of control

CCCCOc1ccc(/C=N\N=C\c2ccc(OCCCC)cc2)cc1
inactive: [1] 90 % of control | [19] 88 % of control
